Laboratory results published in patent publication US4555522A, “Antithrombotic and/or antihypertensive compositions” (T & R Chemicals, Inc., priority 1983, dated 1985).
Where two headings read alike, the source gives them in different places.

Legend:
hypertensive disorders = test: Treatment of hypertensive disorders in rats; assay type: in vivo, rat; settings: aqueous suspension, e.g. 0.5 to 2.5 millimolar
Experimental: (§1) Dimethyl sulphite and diethyl sulphite are successively prepared by esterifying 2 moles of each respective alkanol with 1 mole of thionyl chloride. The diethyl ester is a colourless liquid (b.p. 159°) with an aromatic odour, believed to have the following formula: [drawing 17] A composition based on this compound, e.g. an aqueous suspension having a concentration in the range from 0.5 to 2.5 millimolar, is effective in the treatment of thrombotic and hypertensive disorders in rats. It is theorized to be activated in vivo by virtue of its conversion to sulphite ions.

thrombotic disorders = test: Treatment of thrombotic disorders in rats; assay type: in vivo, rat; settings: aqueous suspension, e.g. 0.5 to 2.5 millimolar
Experimental: as §1

[1] = tested on: platelet aggregation in platelet-rich plasma (PRP); test: In vitro inhibition of platelet aggregation, method of Born; assay type: cell-based; settings: Oryctolagus cuniculus, read-out: IC50 of diethyl sulphite
Experimental: (§2) In order to evaluate the effectiveness of diethyl sulphite as an anti-platelet aggregatory agent the following experiments are carried out.
(A) In vitro Platelet-rich plasma (PRP) is prepared from a rabbit and the IC50 value is determined according to the method of Born, "Nature", 194, 927-929 (1962). The IC50 is the estimated concentration of the agent necessary to inhibit 50 percent of the platelet aggregation. The data tabulated below is obtained.

platelet aggregation = test: Ex vivo inhibition of platelet aggregation after injection into a rabbit; settings: 219 mg injected, 3.06 kg rabbit, about 10 millimolar in blood, 10 minutes
Experimental: as §2
(B) Ex vivo A rabbit weighing 3.06 kg is injected with 219 mg of diethyl sulphite to give a concentration of about 10 millimolar diethyl sulphite in the blood. After 10 minutes, a blood sample is withdrawn and the percent inhibition of platelet aggregation, as compared to a blood sample taken before injection, is determined.

Question: Which “effectiveness in the treatment of hypertensive disorders” value (hypertensive disorders) does the source give for `CCOS(=O)OCC` [diethyl sulphite] here?
Answer: Its value is “effective”.

Question: And the “effectiveness in the treatment of thrombotic disorders” value (thrombotic disorders)?
Answer: Its value is “effective”.

Question: What about the IC50 ([1]; stimulus: U-46619, rabbit PRP) of the same compound?
Answer: Its IC50 is 11 mM.

Question: And the IC50 ([1]; stimulus: adenosine diphosphate (ADP), rabbit PRP)?
Answer: The IC50 was 35 mM.

Question: What about the IC50 ([1]; stimulus: arachidonic acid, rabbit PRP) of the same compound?
Answer: The IC50 was 6.25 mM.

Question: What about the “percent inhibition of platelet aggregation” value (“percent inhibition” for short) (platelet aggregation; stimulus: ADP) of the same compound?
Answer: Its value is 29%.

Question: And the “percent inhibition” value (platelet aggregation; stimulus: U-46619)?
Answer: Its value is 12%.

Question: And the “percent inhibition” value (platelet aggregation; stimulus: arachidonic acid)?
Answer: The value was 0%.
